Results published in patent US11147805B2, “Cannabinoid receptor agonists and serine hydrolase enzyme inhibitor based anxiolytic therapeutic product” (Medipure Pharmaceuticals Inc., priority 2019, dated 2021).

What was measured:
human subjects = human subjects submitted to SPST; cited from earlier work
healthy volunteers = details: chronic administration, even large acute doses of 700 mg/day; cited from earlier work
Swiss albino mice [1] = experiment: Dose-response study: locomotor activity in the open field; assay type: in vivo; details: 7 days repeated, tested 8th day, tracked 60 min, vs vehicle
Method: The effect of CBD, KML29, and JZL184 on locomotor activity in the open field experiment was evaluated using Swiss albino mice.
A total of 88 male Swiss albino mice (˜30-45 g; 7-9 weeks old) were selected and body weights were recorded. Animals were administered respective treatments (n=8) as per the group allocation repeatedly for 7 days. On the day of testing (8th day), animals were brought to the laboratory 1 h prior to acclimatize to the laboratory conditions. Mice were habituated to the arenas for a period of 30 min. Respective treatments were intraperitoneally administered (vehicle (10 mL/kg) or Diazepam (1 mg/kg) or CBD (1, 10 and 100 mg/kg) or KML29 (3, 10 and 30 mg/kg) or JZL184 (3, 10 and 30 mg/kg)) immediately post habituation. After treatment animals were placed in the open field and distance traveled by mice was tracked for 60 min. Data obtained was analyzed by Student's ‘t’-test or Two-way repeated measures ANOVA followed by Bonferroni's posthoc tests by using the Graph pad prism software package (Version 7.0) and a p-value below 0.05 was considered as significant.

Swiss albino mice [2] = experiment: Anxiolytic effects of formulation: locomotor activity in open field, combinations vs diazepam; assay type: in vivo; details: 1 mg/kg, i.p.; tested 8th day, tracked 60 min; vs vehicle
Method: The effect of CBD, KML29, and JZL184 on locomotor activity in open field was evaluated using Swiss albino mice and compared with diazepam.
A total of 48 male Swiss albino mice (˜30-45 g; 7-9 weeks old) were selected and body weights were recorded. Animals were brought to the laboratory 1 h prior to acclimatize to the laboratory conditions. The open field is a black colored arena of 51×51×51 cm enclosed by black plastic walls of same dimensions. Animals were given respective intraperitoneal treatments as per the group allocation (n=8) repeatedly for 7 days. On the day of testing (8th day), mice were habituated to the arenas for a period of 30 min. […] Data obtained was analyzed by Student's ‘t’-test or Two-way repeated measures ANOVA followed by Bonferroni's posthoc tests by using the GraphPad prism software package (Version 7.02) and p-value below 0.05 was considered as significant.
Preparation of formulations: Diazepam was dissolved with sufficient volume of 5% pharmasolve and 95% of 30% w/v captisol to get the concentration of 0.10 mg/mL and was intended for intraperitoneal administration of 1 mg/kg dose at 10 mL/kg dose volume. CBD was dissolved in a calculated volume of DMSO to get the concentration of 20 mg/mL (Stock solution). […] KML29 was dissolved in a calculated volume of DMSO to get the concentration of 50 mg/mL (Stock solution). […]

C=C(C)[C@@H]1CCC(C)=C[C@H]1c1c(O)cc(CCCCC)cc1O [CBD, cannabidiol]
anxiolytic effect (human subjects): anxiolytic effects
toxicity or serious side effects (healthy volunteers): No signs of toxicity or serious side effects
locomotion (distance traveled in open field) (Swiss albino mice [1]; 100 mg/kg, i.p.): significantly decreased the locomotion

CN1C(=O)CN=C(c2ccccc2)c2cc(Cl)ccc21 [Diazepam, diazepam]
locomotion (distance traveled in open field) (Swiss albino mice [2]): significantly decreased the locomotion
locomotion (distance traveled in open field) (Swiss albino mice [1]; 1 mg/kg, i.p.): significantly decreased the locomotion

O=C(Oc1ccc([N+](=O)[O-])cc1)N1CCC(C(O)(c2ccc3c(c2)OCO3)c2ccc3c(c2)OCO3)CC1 [JZL184, 4-nitrophenyl-4-[bis(1,3-benzodioxol-5yl)(hydroxy)methyl]piperidine-1-carboxylate]
locomotion (distance traveled in open field) (Swiss albino mice [1]; 3, 10 and 30 mg/kg i.p.): decreased the locomotion in a dose-dependent manner but the effect did not reach statistical significance

O=C(N1CCC(=C2c3ccc(Cl)cc3CCc3cccnc32)CC1)n1cncn1 [KML29, [4-(8-Chloro-5,6-dihydro-11H-benzo[5,6]cyclohepta[1,2-b]pyridin-11-ylidene)-1-piperidinyl](1H-1,2,4-triazol-1-yl)methanone]
locomotion (distance traveled in open field) (Swiss albino mice [1]; 30 mg/kg, i.p.): decreased the locomotion and attained significance
